# The source made the active and inactive calls. The calls are words filed in the database; no cut-off is given here.
# What was measured:
# RBL-2H3 [1] = assay: (§1) Anti-allergic activity in rat RBL2H3 cells assessed as reduction in mouse anti-DNP IgE-induced beta-hexosaminidase release preincubated for 15 mins followed by mouse anti-DNP IgE-stimulation and measured after 3 hrs by p-nitrophenyl-2-acetamide-2-deoxy-beta-glucopyranoside dye-based colorimetric analysis; type: functional, cell-based
# RBL-2H3 [2] = assay: as §1, with “calcium ionophore-induced” for “mouse anti-DNP IgE-induced”, “calcium ionophore-stimulation” for “mouse anti-DNP IgE-stimulation”; type: functional, cell-based
# RBL-2H3 [3] = assay: Anti-allergic activity in rat RBL2H3 cells assessed as reduction in calcium ionophore-induced TNF-alpha level preincubated for 15 mins followed by calcium ionophore stimulation and measured after 3 hrs by ELISA; type: functional, cell-based
# RBL-2H3 [4] = assay: Cytotoxicity in rat RBL2H3 cells assessed as LDH release; type: cell-based; set-up: concentration or dose not given beside the values
# RBL-2H3 [5] = assay: Anti-allergic activity in rat RBL2H3 cells assessed as reduction in mouse anti-DNP IgE-induced TNF-alpha level preincubated for 15 mins followed by mouse anti-DNP IgE-stimulation and measured after 3 hrs by ELISA; type: functional, cell-based
# RBL-2H3 [6] = assay: Anti-allergic activity in rat RBL2H3 cells assessed as reduction in mouse anti-DNP IgE-induced IL-4 level preincubated for 15 mins followed by mouse anti-DNP IgE-stimulation and measured after 3 hrs by ELISA; type: functional, cell-based
# RBL-2H3 [7] = assay: Anti-allergic activity in rat RBL2H3 cells assessed as reduction in calcium ionophore-induced IL-4 level preincubated for 15 mins followed by calcium ionophore stimulation and measured after 3 hrs by ELISA; type: functional, cell-based
# [8] = target: Tyrosine-protein kinase Lyn (Homo sapiens) (UniProt P07948); assay: Competitive inhibition of human LYN expressed in baculovirus infected Sf9 insect cells using […] at 10 uM after 10 mins by Lineweaver-Burk plot analysis
# [9] = target: Tyrosine-protein kinase Lyn (Homo sapiens) (UniProt P07948); conditions: Sf9, 10 uM
# Description: Inhibition of human LYN expressed in baculovirus infected Sf9 insect cells using p-nitrophenol at 10 uM after 10 mins by Lineweaver-Burk plot analysis
# [10] = target: Tyrosine-protein kinase Lyn (Rattus norvegicus) (UniProt Q07014); assay: Inhibition of Lyn in rat RBL2H3 cells assessed as reduction in mouse anti-DNP IgE-induced Syk phosphorylation level at 10 uM preincubated for 15 mins followed by mouse anti-DNP IgE stimulation and measured after 3 hrs by Western blot analysis; type: cell-based
# [11] = target: Tyrosine-protein kinase Lyn (Rattus norvegicus) (UniProt Q07014); assay: Inhibition of Lyn in rat RBL2H3 cells assessed as reduction in mouse anti-DNP IgE-induced PLCgamma1-phosphorylation level at 10 uM preincubated for 15 mins followed by mouse anti-DNP IgE stimulation and measured after 3 hrs by Western blot analysis; type: cell-based
# [12] = target: Tyrosine-protein kinase Lyn (Rattus norvegicus) (UniProt Q07014); assay: Inhibition of mouse anti-DNP IgE-induced Lyn phosphorylation in rat RBL2H3 cells at 10 uM preincubated for 15 mins followed by mouse anti-DNP IgE stimulation and measured after 3 hrs by Western blot analysis; type: cell-based
# RBL-2H3 [13] = assay: Effect on mouse anti-DNP IgE-induced Lyn protein expression in rat RBL2H3 cells at 10 uM preincubated for 15 mins followed by mouse anti-DNP IgE stimulation and measured after 3 hrs by Western blot analysis; type: functional, cell-based
# RBL-2H3 [14] = assay: Effect on mouse anti-DNP IgE-induced Syk protein expression in rat RBL2H3 cells at 10 uM preincubated for 15 mins followed by mouse anti-DNP IgE stimulation and measured after 3 hrs by Western blot analysis; type: functional, cell-based
# Chain of Tyrosine-protein kinase Lyn (Rattus norvegicus) (Q07014 whole entry): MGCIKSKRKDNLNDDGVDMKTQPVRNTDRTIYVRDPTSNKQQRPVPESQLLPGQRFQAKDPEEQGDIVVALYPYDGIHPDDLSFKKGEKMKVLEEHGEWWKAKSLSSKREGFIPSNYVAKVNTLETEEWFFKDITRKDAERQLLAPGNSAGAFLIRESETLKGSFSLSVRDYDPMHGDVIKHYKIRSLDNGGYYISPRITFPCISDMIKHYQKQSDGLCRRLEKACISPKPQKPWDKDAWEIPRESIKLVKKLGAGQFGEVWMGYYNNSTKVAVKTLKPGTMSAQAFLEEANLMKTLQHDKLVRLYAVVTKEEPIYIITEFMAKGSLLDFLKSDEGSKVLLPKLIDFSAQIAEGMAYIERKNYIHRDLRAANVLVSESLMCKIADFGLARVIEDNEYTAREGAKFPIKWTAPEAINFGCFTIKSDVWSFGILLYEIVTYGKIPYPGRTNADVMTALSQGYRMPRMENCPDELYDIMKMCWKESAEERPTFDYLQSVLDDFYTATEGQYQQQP
# Chain of Tyrosine-protein kinase Lyn (Homo sapiens) (P07948 2-512 limits assumed): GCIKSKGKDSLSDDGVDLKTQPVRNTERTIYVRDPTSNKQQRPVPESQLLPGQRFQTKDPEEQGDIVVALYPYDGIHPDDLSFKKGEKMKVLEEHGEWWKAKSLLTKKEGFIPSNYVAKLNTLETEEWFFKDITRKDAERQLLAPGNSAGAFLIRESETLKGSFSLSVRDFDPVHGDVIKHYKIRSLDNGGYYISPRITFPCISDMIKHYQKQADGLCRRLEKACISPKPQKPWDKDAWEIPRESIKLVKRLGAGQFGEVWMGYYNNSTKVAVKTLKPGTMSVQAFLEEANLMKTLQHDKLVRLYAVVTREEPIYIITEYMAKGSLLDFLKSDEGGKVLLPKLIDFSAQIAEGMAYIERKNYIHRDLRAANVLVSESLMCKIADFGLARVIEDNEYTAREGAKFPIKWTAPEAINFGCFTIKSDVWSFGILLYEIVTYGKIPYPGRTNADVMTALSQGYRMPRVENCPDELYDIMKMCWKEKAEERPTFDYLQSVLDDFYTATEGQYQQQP
SMILES,IC50 (RBL-2H3 [1]),IC50 (RBL-2H3 [2]),IC50 (RBL-2H3 [3]),IC50 (RBL-2H3 [5]),IC50 (RBL-2H3 [6]),IC50 (RBL-2H3 [7]),inhibition [10],inhibition [11],inhibition [12],Activity (RBL-2H3 [4]),inhibition [8],inhibition [9],Activity (RBL-2H3 [13]),Activity (RBL-2H3 [14])
C/C=C/C=C/C(=O)c1cc(C)c(O)c(C)c1O,26.5 µM,< 100 µM,< 100 µM,,,,,,,< 5%,,,,
C/C=C/C=C/C(=O)C1=C[C@@]2(C)[C@H]3C(C(=O)/C=C/C=C/C)=C(O)C(C)=C(O)[C@@]3(C)O[C@@]2(O)[C@@](C)(O)C1=O [BISVERTINOLONE],9.1 µM,< 100 µM,< 100 µM,40.8 µM,7.7 µM,7.3 µM,,,,< 5%,,,,
CN[C@@H]1C[C@H]2O[C@@](C)([C@@H]1OC)n1c3ccccc3c3c4c(c5c6ccccc6n2c5c31)C(=O)NC4,,,,,,,,,,,inactive,Active,,
C/C=C/C=C/C(=O)[C@]12C(=O)C(C)=C(O)[C@@](C)(O)[C@H]1[C@H]1\C(=C(O)/C=C/C=C/C)C(=O)[C@]2(C)C(=O)[C@@]1(C)O [BISORBICILLINOL],2.8 µM,53.6 µM,63.8 µM,2.9 µM,2.8 µM,4.9 µM,Active,Active,inactive,< 5%,Active,,inactive,inactive

# Further compounds by falling IC50 (RBL-2H3 [1]), results first:
IC50 (RBL-2H3 [1]),IC50 (RBL-2H3 [2]),IC50 (RBL-2H3 [3]),IC50 (RBL-2H3 [5]),IC50 (RBL-2H3 [6]),IC50 (RBL-2H3 [7]),inhibition [10],inhibition [11],inhibition [12],SMILES,Activity (RBL-2H3 [4]),inhibition [8],inhibition [9],Activity (RBL-2H3 [13]),Activity (RBL-2H3 [14])
18.3 µM,< 100 µM,23.2 µM,29.6 µM,6.9 µM,9.1 µM,,,,C/C=C/C=C/C(O)=C1/C(=O)[C@@]2(C)[C@H]3\C(=C(O)/C=C/C=C/C)C(=O)[C@@]4(C)[C@@H]1[C@]1(C)O[C@@]4(O)[C@@]3(C)O[C@@]12O,< 5%,,,,
4.8 µM,< 100 µM,< 100 µM,35.6 µM,8.5 µM,27.1 µM,,,,C/C=C/C=C/C(=O)C1=C[C@](C)(OC(C)=O)C(=O)C(C)=C1O,< 5%,,,,
4.5 µM,< 100 µM,< 100 µM,17.3 µM,59.4 µM,17.9 µM,,,,C/C=C/C=C/C(O)=C1/C(=O)[C@@]2(C)[C@H]3\C(=C(O)/C=C/C=C/C)C(=O)[C@H]4[C@@H]1[C@]1(C)O[C@@]4(O)[C@@]3(C)O[C@@]12O,< 5%,,,,
